Patent US10730887B2, “Compound containing tricyclic heteroaryl group” (Hangzhou Innogate Pharma Co., Ltd., priority 2016, dated 2020)

Target: FAK (Homo sapiens, UniProt Q05397)
Experiment: FAK kinase activity inhibition, Latha screen analysis
Type: biochemical
Experimental: FAK protein kinase activity was determined by Latha screen analysis. The compound was dissolved in DMSO and diluted with kinase buffer (25 mM HEPES, pH 7.5, 0.01 mM Triton, 10 mM MgCl2, 0.5 mM EGTA, 0.01% BRIJ-35, 2 mM DTT), 2.5 μL was added to the 384-well plate 4 times the final concentration of the compound (4% DMSO). After adding 5 μL of 2-fold FAK enzyme solution, incubate for 10 minutes at room temperature, and then add 2.5 μL of 4 times substrate (Fluorescein-polyGT and ATP) solution. After incubating for 30 minutes at 25° C., 10 μL of the detection solution (antibody of phosphorylation site 2 nM and EDTA 10 mM) was added to terminate the reaction. The data emitted at […] and emitted at 520 nm was read from Envision, and the luminescence reading data was copied from the Envision program, and the value of the luminescence reading was converted to the percent inhibition by a formula. The conversion rate was converted into inhibition rate data (% inhibition rate=(max−conversion rate)/(max−min)*100). “min” is the control fluorescence reading for the reaction without enzyme: “max” is the fluorescence reading of the sample with DMSO added as a control. Curves were plotted with compound concentration and inhibition rate on the horizontal and vertical coordinates, and the curve was fitted using XLFit excel add-in version 4.3.1 software and IC50 was calculated.

FAK, sequence (Q05397 whole entry, species assumed): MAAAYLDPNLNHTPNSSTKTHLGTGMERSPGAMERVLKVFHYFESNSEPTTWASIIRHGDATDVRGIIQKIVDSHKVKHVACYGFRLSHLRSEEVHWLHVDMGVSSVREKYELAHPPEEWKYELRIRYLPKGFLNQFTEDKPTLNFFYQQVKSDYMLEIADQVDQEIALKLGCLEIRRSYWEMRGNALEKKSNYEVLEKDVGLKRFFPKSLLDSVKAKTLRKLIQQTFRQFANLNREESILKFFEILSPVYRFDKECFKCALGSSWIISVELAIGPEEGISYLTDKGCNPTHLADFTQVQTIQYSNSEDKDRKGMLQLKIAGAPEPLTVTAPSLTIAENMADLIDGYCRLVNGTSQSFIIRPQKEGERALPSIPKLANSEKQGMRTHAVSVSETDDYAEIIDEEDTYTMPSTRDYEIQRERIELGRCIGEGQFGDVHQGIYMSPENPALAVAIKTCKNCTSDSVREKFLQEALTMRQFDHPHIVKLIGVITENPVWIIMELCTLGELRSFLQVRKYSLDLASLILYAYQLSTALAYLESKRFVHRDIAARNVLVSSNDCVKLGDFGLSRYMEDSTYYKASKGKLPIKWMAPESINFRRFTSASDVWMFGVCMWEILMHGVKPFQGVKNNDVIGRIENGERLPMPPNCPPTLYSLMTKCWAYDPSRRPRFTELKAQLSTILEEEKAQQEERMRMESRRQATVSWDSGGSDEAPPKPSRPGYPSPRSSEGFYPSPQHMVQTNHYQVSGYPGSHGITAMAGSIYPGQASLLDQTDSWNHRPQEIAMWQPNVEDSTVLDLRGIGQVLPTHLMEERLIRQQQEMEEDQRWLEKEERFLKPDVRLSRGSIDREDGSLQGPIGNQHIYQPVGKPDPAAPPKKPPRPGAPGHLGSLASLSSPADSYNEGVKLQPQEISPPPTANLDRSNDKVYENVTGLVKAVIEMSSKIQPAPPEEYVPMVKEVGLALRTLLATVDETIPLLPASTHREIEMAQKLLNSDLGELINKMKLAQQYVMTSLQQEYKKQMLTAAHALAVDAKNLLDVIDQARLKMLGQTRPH

IC50: < 1 nM
SMILES: CNC(=O)c1ccccc1Nc1cc(Nc2ccc3c(c2)OCC2COCCN32)ncc1C(F)(F)F (stereo not shown) [Compound E1]
